Measured values reported in US10695337B2, “Piperidin-4-yl azetidine derivatives as JAK1 inhibitors” (Incyte Corporation, priority 2010, dated 2020).

Biological target: human JAK1 (a.a. 837-1142)
Assay: In vitro JAK kinase assay (HTRF, phosphorylation of a biotinylated peptide), JAK1
Type: biochemical
Conditions: measured at 1 mM ATP; JAK2 IC50 / JAK1 IC50
Description: Compounds herein were tested for inhibitory activity of JAK targets according to the following in vitro assay described in Park et al., Analytical Biochemistry 1999, 269, 94-104. The catalytic domains of human JAK1 (a.a. 837-1142), Jak2 (a.a. 828-1132) and Jak3 (a.a. 781-1124) with an N-terminal His tag were expressed using baculovirus in insect cells and purified. The catalytic activity of JAK1, JAK2 or JAK3 was assayed by measuring the phosphorylation of a biotinylated peptide. The phosphorylated peptide was detected by homogenous time resolved fluorescence (HTRF). […] Reactions were carried out at room temperature for 1 hr and then stopped with 20 μL 45 mM EDTA, 300 nM SA-APC, 6 nM Eu-Py20 in assay buffer (Perkin Elmer, Boston, Mass.). Binding to the Europium labeled antibody took place for 40 minutes and HTRF signal was measured on a Fusion plate reader (Perkin Elmer, Boston, Mass.).

| Structure (SMILES) | IC50 Ratio JAK2/JAK1 |
| --- | --- |
| COc1ccc(C(=O)N2CCC(N3CC(CC#N)(n4cc(-c5ncnc6[nH]ccc56)cn4)C3)CC2)cc1C#N [Example 55, 5-[(4-{3-(cyanomethyl)-3-[4-(7H-pyrrolo[2,3-d]pyrimidin-4-yl)-1H-pyrazol-1-yl]azetidin-1-yl}piperidin-1-yl)carbonyl]-2-methoxybenzonitrile] | 7.5 |
| N#CCC1(n2cc(-c3ncnc4[nH]ccc34)cn2)CN(C2CCN(C(=O)c3c(F)c(F)cc(F)c3F)CC2)C1 [Example 56, {3-[4-(7H-pyrrolo[2,3-d]pyrimidin-4-yl)-1H-pyrazol-1-yl]-1-[1-(2,3,5,6-tetrafluorobenzoyl)piperidin-4-yl]azetidin-3-yl}acetonitrile] | 8.8 |
| N#CCC1(n2cc(-c3ncnc4[nH]ccc34)cn2)CN(C2CCN(C(=O)c3ccnc(C(F)(F)F)c3)CC2)C1 [Example 57, (3-[4-(7H-pyrrolo[2,3-d]pyrimidin-4-yl)-1H-pyrazol-1-yl]-1-{1-[2-(trifluoromethyl)isonicotinoyl]piperidin-4-yl}azetidin-3-yl)acetonitrile] | 3.3 |
| N#CCC1(n2cc(-c3ncnc4[nH]ccc34)cn2)CN(C2CCN(C(=O)c3ccc(F)c(O)c3)CC2)C1 [Example 58, {1-[1-(4-fluoro-3-hydroxybenzoyl)piperidin-4-yl]-3-[4-(7H-pyrrolo[2,3-d]pyrimidin-4-yl)-1H-pyrazol-1-yl]azetidin-3-yl} acetonitrile] | 5.0 |
| CN(C)c1ccc(C(=O)N2CCC(N3CC(CC#N)(n4cc(-c5ncnc6[nH]ccc56)cn4)C3)CC2)cc1C#N [Example 59, 5-[(4-{3-(cyanomethyl)-3-[4-(7H-pyrrolo[2,3-d]pyrimidin-4-yl)-1H-pyrazol-1-yl]azetidin-1-yl}piperidin-1yl)carbonyl]-2-(dimethylamino)benzonitrile] | 4.6 |
| CN(C)c1c(F)c(F)c(C(=O)N2CCC(N3CC(CC#N)(n4cc(-c5ncnc6[nH]ccc56)cn4)C3)CC2)c(F)c1F [Example 60, {1-{1-[4-(dimethylamino)-2,3,5,6-tetrafluorobenzoyl]piperidin-4-yl}-3-[4-(7H-pyrrolo[2,3-d]pyrimidin-4-yl)-1H-pyrazol-1-yl]azetidin-3-yl}acetonitrile] | 1.8 |
| N#CCC1(n2cc(-c3ncnc4[nH]ccc34)cn2)CN(C2CCN(C(=O)c3c(F)cncc3F)CC2)C1 [Example 61, {1-[1-(3,5-difluoroisonicotinoyl)piperidin-4-yl]-3-[4-(7H-pyrrolo[2,3-d]pyrimidin-4-yl)-1H-pyrazol-1-yl]azetidin-3-yl}acetonitrile] | 4.2 |
| N#CCC1(n2cc(-c3ncnc4[nH]ccc34)cn2)CN(C2CCN(C(=O)c3ccccc3F)CC2)C1 [Example 67, {1-[1-(2-fluorobenzoyl)piperidin-4-yl]-3-[4-(7H-pyrrolo[2,3-d]pyrimidin-4-yl)-1H-pyrazol-1-yl]azetidin-3-yl}acetonitrile] | 4.7 |
| N#CCC1(n2cc(-c3ncnc4[nH]ccc34)cn2)CN(C2CCN(C(=O)c3sc(C(F)(F)F)cc3O)CC2)C1 [Example 71, {1-{1-[3-hydroxy-5-(trifluoromethyl)-2-thienylcarbonyl]piperidin-4-yl}-3-[4-(7H-pyrrolo[2,3-d]pyrimidin-4-yl)-1H-pyrazol-1-yl]azetidin-3-yl}acetonitrile] | 4.4 |
| COc1cscc1C(=O)N1CCC(N2CC(CC#N)(n3cc(-c4ncnc5[nH]ccc45)cn3)C2)CC1 [Example 72, {1-{1-[(4-methoxy-3-thienyl)carbonyl]piperidin-4-yl}-3-[4-(7H-pyrrolo[2,3-d]pyrimidin-4-yl)-1H-pyrazol-1-yl]azetidin-3-yl} acetonitrile] | 6.6 |

Next, values leading:

| IC50 Ratio JAK2/JAK1 | Structure (SMILES) |
| --- | --- |
| 4.2 | Cc1cc(C(=O)N2CCC(N3CC(CC#N)(n4cc(-c5ncnc6[nH]ccc56)cn4)C3)CC2)cs1 [Example 73, {1-{1-[(5-methyl-3-thienyl)carbonyl]piperidin-4-yl}-3-[4-(7H-pyrrolo[2,3-d]pyrimidin-4-yl)-1H-pyrazol-1-yl]azetidin-3-yl} acetonitrile] |
| 3.8 | COc1c(C(=O)N2CCC(N3CC(CC#N)(n4cc(-c5ncnc6[nH]ccc56)cn4)C3)CC2)csc1Cl [Example 74, {1-{1-[(5-chloro-4-methoxy-3-thienyl)carbonyl]piperidin-4-yl}-3-[4-(7H-pyrrolo[2,3-d]pyrimidin-4-yl)-1H-pyrazol-1-yl]azetidin-3-yl} acetonitrile] |
| 3.4 | N#CCC1(n2cc(-c3ncnc4[nH]ccc34)cn2)CN(C2CCN(C(=O)c3ccsc3Br)CC2)C1 [Example 75, {1-{1-[(2-bromo-3-thienyl)carbonyl]piperidin-4-yl}-3-[4-(7H-pyrrolo[2,3-d]pyrimidin-4-yl)-1H-pyrazol-1-yl]azetidin-3-yl}acetonitrile] |
| 5.5 | N#CCC1(n2cc(-c3ncnc4[nH]ccc34)cn2)CN(C2CCN(C(=O)c3sccc3Cl)CC2)C1 [Example 76, {1-{1-[(3-chloro-2-thienyl)carbonyl]piperidin-4-yl}-3-[4-(7H-pyrrolo[2,3-d]pyrimidin-4-yl)-1H-pyrazol-1-yl]azctidin-3-yl}acetonitrile] |
| 5.5 | N#CCC1(n2cc(-c3ncnc4[nH]ccc34)cn2)CN(C2CCN(C(=O)c3ccc(Cl)s3)CC2)C1 [Example 77, {1-{1-[(5-chloro-2-thienyl)carbonyl]piperidin-4-yl}-3-[4-(7H-pyrrolo[2,3-d]pyrimidin-4-yl)-1H-pyrazol-1-yl]azetidin-3-yl}acetonitrile] |
| 5.4 | Cc1ccsc1C(=O)N1CCC(N2CC(CC#N)(n3cc(-c4ncnc5[nH]ccc45)cn3)C2)CC1 [Example 78, {1-{1-[(3-methyl-2-thienyl)carbonyl]piperidin-4-yl}-3-[4-(7H-pyrrolo[2,3-d]pyrimidin-4-yl)-1H-pyrazol-1-yl]azetidin-3-yl}acetonitrile] |
| 4.1 | Cc1ccc(C(=O)N2CCC(N3CC(CC#N)(n4cc(-c5ncnc6[nH]ccc56)cn4)C3)CC2)s1 [Example 80, {1-{1-[(5-methyl-2-thienyl)carbonyl]piperidin-4-yl}-3-[4-(7H-pyrrolo[2,3-d]pyrimidin-4-yl)-1H-pyrazol-1-yl]azetidin-3-yl}acetonitrile] |
| 4.2 | COc1ccsc1C(=O)N1CCC(N2CC(CC#N)(n3cc(-c4ncnc5[nH]ccc45)cn3)C2)CC1 [Example 81, {1-{1-[(3-methoxy-2-thienyl)carbonyl]piperidin-4-yl}-3-[4-(7H-pyrrolo[2,3-d]pyrimidin-4-yl)-1H-pyrazol-1-yl]azetidin-3-yl}acetonitrile] |
| 5.3 | N#CCC1(n2cc(-c3ncnc4[nH]ccc34)cn2)CN(C2CCN(C(=O)c3ccc(C(F)(F)F)cc3F)CC2)C1 [Example 82, {1-{1-[2-fluoro-4-(trifluoromethyl)benzoyl]piperidin-4-yl}-3-[4-(7H-pyrrolo[2,3-d]pyrimidin-4-yl)-1H-pyrazol-1-yl]azetidin-3-yl} acetonitrile] |
| 5.8 | N#CCC1(n2cc(-c3ncnc4[nH]ccc34)cn2)CN(C2CCN(C(=O)c3c(F)cc(C#N)cc3F)CC2)C1 [Example 83, 4-[(4-{3-(cyanomethyl)-3-[4-(7H-pyrrolo[2,3-d]pyrimidin-4-yl)-1H-pyrazol-1-yl]azetidin-1-yl}piperidin-1-yl)carbonyl]-3,5-difluorobenzonitrile] |
